PubChem BioAssay (NCI)
Where “and” joins values, the source holds several entries; their conditions need not be identical. Equal entries are not always repeated.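 Protocol summary: plate cells (96-well), add compound at 5 concentrations, incubate 48 h, interpolate endpoints linearly. GI50 = concentration required for 50% inhibition of growth. TGI marks complete inhibition of growth.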

How the values were obtained:
Assay in all cases: NCI tumour cell line growth inhibition, 48 h
786-0 renal = tested on: 786-0 renal
A498 renal = tested on: A498 renal
HS 578T breast = tested on: HS 578T breast
IGROV1 ovarian = tested on: IGROV1 ovarian
K-562 leukemia = tested on: K-562 leukemia
MDA-MB-435 = tested on: MDA-MB-435
MOLT-4 leukemia = tested on: MOLT-4 leukemia
SF-295 CNS = tested on: SF-295 CNS
SK-OV-3 ovarian = tested on: SK-OV-3 ovarian
UACC-62 melanoma = tested on: UACC-62 melanoma

SMILES	GI50 (786-0 renal)	TGI (786-0 renal)	GI50 (A498 renal)	TGI (A498 renal)	GI50 (HS 578T breast)	TGI (HS 578T breast)	GI50 (IGROV1 ovarian)	TGI (IGROV1 ovarian)	GI50 (K-562 leukemia)	TGI (K-562 leukemia)	GI50 (MDA-MB-435)	TGI (MDA-MB-435)	GI50 (MOLT-4 leukemia)	TGI (MOLT-4 leukemia)	GI50 (SF-295 CNS)	TGI (SF-295 CNS)	GI50 (SK-OV-3 ovarian)	TGI (SK-OV-3 ovarian)	GI50 (UACC-62 melanoma)	TGI (UACC-62 melanoma)
O=C1c2nsnc2C(=O)c2c(F)c(F)c(F)c(F)c21	1.63 µM	3.01 µM	1.6 µM	3.57 µM	0.342 µM	1.96 µM	1.52 µM	5.07 µM	0.238 µM	1.01 µM	0.846 µM	2.14 µM	0.298 µM	1.44 µM	1.4 µM	2.99 µM	2.04 µM	3.7 µM	1.2 µM	2.5 µM
CNC(=O)OCc1c2ccncc2c(C)c2c1[nH]c1ccccc12	–	14.2 µM	–	0.673 µM	–	3.12 µM	–	1.3 µM	–	> 100 µM	–	1.58 µM	–	> 100 µM	–	4.66 µM	–	1.78 µM	–	0.869 µM
COC1CCN(C(=O)c2cc(Cc3n[nH]c(=O)c4ccccc34)ccc2F)CC1	> 100 µM	> 100 µM	> 41.2 µM	> 100 µM	> 64.5 µM	> 100 µM	> 60.4 µM	> 100 µM	> 89.1 µM	> 100 µM	> 100 µM	> 100 µM	39.3 µM	> 100 µM	24.2 µM	> 100 µM	> 100 µM	> 100 µM	40 µM	> 100 µM
COC(=O)[C@]12CC[C@@H](C)[C@H](C)[C@@H]1C1=CC[C@@H]3[C@@]4(C)C(C=O)=C[C@@](C)(COC(C)=O)C4=CC[C@@]3(C)[C@]1(C)CC2	3.5 µM	15 µM	10.8 µM	24 µM	5.07 µM	30.3 µM	5.51 µM	22.7 µM	4.1 µM	15.3 µM	4.28 µM	16.4 µM	1.82 µM	6.12 µM	2.98 µM	11.9 µM	18 µM	50.4 µM	4.11 µM	18.1 µM
N#Cc1ccccc1NC(=O)C(=O)c1c(O)c2ccccc2oc1=O	–	> 100 µM	–	> 100 µM	–	> 100 µM	–	> 100 µM	–	> 100 µM	–	> 100 µM	–	–	–	> 100 µM	–	> 100 µM	–	> 100 µM
CN(C)CCNC(=O)C(C)(C)Oc1ccc(C(=O)c2ccc(Cl)cc2)cc1Cl	3.37 µM	13.6 µM	–	30.7 µM	–	23 µM	–	25.3 µM	2.42 µM	9.19 µM and > 39 µM	–	17.2 µM	3.26 µM	> 59.8 µM	4.74 µM	22.6 µM	–	29.6 µM	2.81 µM	4.29 µM
N/N=C(\C(=O)Nc1ccc(Cl)cc1Cl)C(c1cnc2ccccc2n1)[N+](=O)[O-] (stereo not drawn)	–	> 100 µM	–	> 100 µM	–	> 100 µM	–	> 100 µM	–	> 100 µM	–	> 100 µM	–	–	–	> 100 µM	–	> 100 µM	–	> 100 µM
CC1COc2c(N3CCN(C)CC3)c(F)cc3c(=O)c(C(=O)O)cn1c23 (stereo not drawn)	> 100 µM	> 100 µM	> 100 µM	> 100 µM	> 100 µM	> 100 µM	> 100 µM	> 100 µM	96.8 µM	> 100 µM	> 100 µM	> 100 µM	–	–	> 100 µM	> 100 µM	> 100 µM	> 100 µM	> 100 µM	> 100 µM
Clc1cccc(Cl)c1C1CSc2ccccc2N=C1c1ccccc1 (stereo not drawn)	10.7 µM	23 µM	13.1 µM	26.6 µM	6.26 µM	57.6 µM	3.13 µM	11.8 µM	–	–	3.59 µM	13.6 µM	3.86 µM	37.6 µM	13.6 µM	31.7 µM	11.5 µM	24.4 µM	5.9 µM	19.6 µM
O=C1c2ccccc2S(=O)(=O)N1CSC(=S)N1CCCCC1	> 100 µM	> 100 µM	> 100 µM	> 100 µM	> 100 µM	> 100 µM	> 89 µM	> 100 µM	> 94.6 µM	> 100 µM	> 100 µM	> 100 µM	–	–	> 100 µM	> 100 µM	> 100 µM	> 100 µM	–	> 57.3 µM
COC(=O)C(=O)C(C(=O)C(=O)Nc1nc2ccc(C)cc2s1)c1nc2ccc([N+](=O)[O-])cc2[nH]c1=O (stereo not drawn)	–	> 100 µM	–	> 100 µM	–	> 100 µM	–	> 100 µM	–	> 100 µM	–	> 100 µM	–	–	–	> 100 µM	–	> 100 µM	–	> 100 µM
CCCCCCCCN(CCCCCCCC)CCCCCCNc1cc(OC)cc2cccnc12	14.6 µM	28.4 µM	15.6 µM	30.5 µM	11 µM	29.7 µM	13.2 µM	29.4 µM	–	–	3.59 µM	12.8 µM	16.3 µM	42.9 µM	14 µM	29.3 µM	15.3 µM	28.8 µM	16.9 µM	31.4 µM
